In ChEMBL document CHEMBL5726194, “Benzenesulfonamide compounds and their use as therapeutic agents” (2017) one finds IC50 data, which are given here for one compound.

This assay can be described thus: Electrophysiological Assay : The following patch voltage clamp electrophysiology studies were performed on representative compounds of the invention using human embryonic kidney cells (HEK), permanently transfected with an expression vector containing the full-length cDNA coding for the desired human sodium channel α-subunit, grown in culture media containing 10% FBS, 1% PSG, and 0.5 mg/mL G418 at 37° C. with 5% CO2. […] Nav1.7 and Nav1.5 cDNAs (NM_002977 and AC137587; SCN5A, respectively) were stably expressed in HEK-293 cells. The β1 subunit was coexpressed only in the Nav1.7 cell line. It counts as cell-based.

SMILES strings stand for the structures.

What is called IC50 is the midpoint of a concentration-inhibition curve. On to `O=S(=O)(Nc1ncns1)c1cc(F)c(OC[C@@H]2CNCC[C@H]2c2ccc(F)c(C(F)(F)F)c2)cc1F` (relative stereo), for which the IC50 amounted to 71 nM.
